According to PubChem BioAssay (NCI):
“And” between values parts separate entries of the source, which are not always exact repeats. Identical values can stand only once.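 Assay format: 96-well plates, 48-hour exposure. GI50: concentration for 50% inhibition of growth. TGI: total growth inhibition.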

Legend:
Experiment in all cases: NCI-60 cell line screen, 48 h
CCRF-CEM leukemia = tested on: CCRF-CEM leukemia
COLO 205 colon = tested on: COLO 205 colon
EKVX NSCLC = tested on: EKVX NSCLC
HOP-92 NSCLC = tested on: HOP-92 NSCLC
KM12 colon = tested on: KM12 colon
NCI-H226 lung = tested on: NCI-H226 lung
NCI-H460 lung = tested on: NCI-H460 lung
OVCAR-3 ovarian = tested on: OVCAR-3 ovarian
SF-295 CNS = tested on: SF-295 CNS
SK-OV-3 ovarian = tested on: SK-OV-3 ovarian

| Compound | GI50 (CCRF-CEM leukemia) | TGI (CCRF-CEM leukemia) | TGI (COLO 205 colon) | TGI (EKVX NSCLC) | GI50 (HOP-92 NSCLC) | TGI (HOP-92 NSCLC) | TGI (KM12 colon) | GI50 (NCI-H226 lung) | TGI (NCI-H226 lung) | GI50 (NCI-H460 lung) | TGI (NCI-H460 lung) | TGI (OVCAR-3 ovarian) | GI50 (SF-295 CNS) | TGI (SF-295 CNS) | TGI (SK-OV-3 ovarian) | GI50 (COLO 205 colon) | GI50 (EKVX NSCLC) | GI50 (KM12 colon) | GI50 (OVCAR-3 ovarian) | GI50 (SK-OV-3 ovarian) |
| --- | --- | --- | --- | --- | --- | --- | --- | --- | --- | --- | --- | --- | --- | --- | --- | --- | --- | --- | --- | --- |
| COc1cc(C2c3cc4c(cc3[C@@H](Nc3cccc(O)c3)C3COC(=O)[C@H]23)OCO4)cc(OC)c1O (some centres undefined) | 237 nM | 0.973 µM and 7.66 µM | 23.1 µM | 15 µM | 458 nM | 0.951 µM and 9.4 µM | 11.6 µM | 0.423 µM | 0.902 µM and 4.04 µM | 145 nM | 3.55 µM | 12.6 µM | 585 nM | 8.07 µM | 18 µM | – | – | – | – | – |
| C=CC[PH+](c1ccccc1)c1ccccc1.C=CC[PH+](c1ccccc1)c1ccccc1.[Cl][Pt][Cl] | 3600 nM | > 100 µM | 34.1 µM | 27.4 µM | 3270 nM | 12.4 µM | 35.7 µM | 16.1 µM | 33 µM | 12800 nM | 30.1 µM | 10.4 µM | 37900 nM | > 100 µM | 65.7 µM | 5390 nM | 13000 nM | 15400 nM | 3210 nM | 24 µM |
| N#Cc1ccc(N2Cc3cc(Cl)ccc3OC3=C2C(=O)N(Cc2ccccc2)C3=O)cc1 | 226 nM | 0.827 µM | 2.92 µM | 4.92 µM | 1450 nM | 3.09 µM | 8.01 µM | 1.93 µM | 6.78 µM | 2090 nM | 4.52 µM | 1.54 µM | 5220 nM | 20.4 µM | 31.5 µM | 1210 nM | 2020 nM | 2700 nM | 442 nM | 10.9 µM |
| Cn1c(COC(=O)NCCN2CCOCC2)nc2c(N3CCOCC3)nc(-c3ccccc3)nc21 | 306 nM | 2.17 µM | 3.36 µM | 3.36 µM | 779 nM | 2.45 µM | 3.4 µM | 4.38 µM | 20.3 µM | 1250 nM | 2.77 µM | 1.53 µM | 2090 nM | 5.99 µM | 16.1 µM | 1490 nM | 1480 nM | 1530 nM | 343 nM | 4.79 µM |
| O=[N+]([O-])c1cccc(-c2ncc(-c3ccc(Cl)cc3Cl)[nH]2)c1 | 1490 nM | 4.48 µM | 11.4 µM | 6.81 µM | – | 35.4 µM | 3.41 µM | 8.03 µM | 21.6 µM | 7260 nM | 30.2 µM | 5.93 µM | 2140 nM | 5.28 µM | > 70 µM | 3450 nM | 2150 nM | 1750 nM | 2440 nM | 22.7 µM |
| CCCCCCN1C(=O)CN=C1Nc1ccc2cc3ccc(NC4=NCC(=O)N4CCCCCC)cc3nc2c1 | 2490 nM | 6.79 µM | 4.04 µM | 5.22 µM | 1630 nM | 3.78 µM | 4.1 µM | 2.48 µM | 7.25 µM | 1930 nM | 3.83 µM | 3.08 µM | 1820 nM | 3.82 µM | 28.9 µM | 1880 nM | 1890 nM | 1470 nM | 1360 nM | 11.6 µM |
